Experimental data published in ChEMBL document CHEMBL3217745, “Identification of false positives in HTS hits to lead: The application of Bayesian models in HTS triage to rapidly deliver a series of selective TRPV4 antagonists” (Medchemcomm, 2013).

Experiments:
[1] = biological target: T1, Transient receptor potential cation channel subfamily V member 4 (Homo sapiens, UniProt Q9HBA0); assay: Antagonist activity at human TRPV4 expressed in CHOK1 cells assessed as inhibition of PF-04674114/GSK1016790A-induced changes in intracellular calcium level measured for 5 mins by FLIPR assay; assay type: cell-based, CHO-K1
T1 sequence (Q9HBA0 whole entry): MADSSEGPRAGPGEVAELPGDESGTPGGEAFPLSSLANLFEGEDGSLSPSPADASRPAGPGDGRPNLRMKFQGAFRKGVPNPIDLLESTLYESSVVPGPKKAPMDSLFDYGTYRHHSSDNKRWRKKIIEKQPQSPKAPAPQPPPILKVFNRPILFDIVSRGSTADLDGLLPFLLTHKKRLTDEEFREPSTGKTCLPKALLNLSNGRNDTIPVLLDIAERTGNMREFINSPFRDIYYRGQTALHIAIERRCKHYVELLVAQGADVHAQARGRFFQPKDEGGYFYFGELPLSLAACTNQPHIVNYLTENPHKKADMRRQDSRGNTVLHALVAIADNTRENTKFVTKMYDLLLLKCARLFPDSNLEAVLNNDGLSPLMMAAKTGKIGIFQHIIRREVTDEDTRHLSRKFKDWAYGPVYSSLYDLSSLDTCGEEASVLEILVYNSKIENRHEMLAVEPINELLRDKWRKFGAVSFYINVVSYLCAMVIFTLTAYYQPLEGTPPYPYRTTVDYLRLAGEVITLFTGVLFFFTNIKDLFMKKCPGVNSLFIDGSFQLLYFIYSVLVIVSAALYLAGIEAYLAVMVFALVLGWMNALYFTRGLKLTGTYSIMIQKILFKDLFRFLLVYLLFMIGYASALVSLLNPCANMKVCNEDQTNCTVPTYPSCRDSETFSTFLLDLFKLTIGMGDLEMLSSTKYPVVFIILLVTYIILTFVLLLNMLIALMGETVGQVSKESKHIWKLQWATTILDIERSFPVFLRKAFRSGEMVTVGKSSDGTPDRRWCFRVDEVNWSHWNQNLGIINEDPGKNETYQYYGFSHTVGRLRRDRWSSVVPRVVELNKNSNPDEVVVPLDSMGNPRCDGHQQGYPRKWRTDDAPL

[2] = biological target: T2, Transient receptor potential cation channel subfamily V member 1 (Homo sapiens, UniProt Q8NER1); assay: Antagonist activity at human TRPV1
T2 sequence (Q8NER1 whole entry): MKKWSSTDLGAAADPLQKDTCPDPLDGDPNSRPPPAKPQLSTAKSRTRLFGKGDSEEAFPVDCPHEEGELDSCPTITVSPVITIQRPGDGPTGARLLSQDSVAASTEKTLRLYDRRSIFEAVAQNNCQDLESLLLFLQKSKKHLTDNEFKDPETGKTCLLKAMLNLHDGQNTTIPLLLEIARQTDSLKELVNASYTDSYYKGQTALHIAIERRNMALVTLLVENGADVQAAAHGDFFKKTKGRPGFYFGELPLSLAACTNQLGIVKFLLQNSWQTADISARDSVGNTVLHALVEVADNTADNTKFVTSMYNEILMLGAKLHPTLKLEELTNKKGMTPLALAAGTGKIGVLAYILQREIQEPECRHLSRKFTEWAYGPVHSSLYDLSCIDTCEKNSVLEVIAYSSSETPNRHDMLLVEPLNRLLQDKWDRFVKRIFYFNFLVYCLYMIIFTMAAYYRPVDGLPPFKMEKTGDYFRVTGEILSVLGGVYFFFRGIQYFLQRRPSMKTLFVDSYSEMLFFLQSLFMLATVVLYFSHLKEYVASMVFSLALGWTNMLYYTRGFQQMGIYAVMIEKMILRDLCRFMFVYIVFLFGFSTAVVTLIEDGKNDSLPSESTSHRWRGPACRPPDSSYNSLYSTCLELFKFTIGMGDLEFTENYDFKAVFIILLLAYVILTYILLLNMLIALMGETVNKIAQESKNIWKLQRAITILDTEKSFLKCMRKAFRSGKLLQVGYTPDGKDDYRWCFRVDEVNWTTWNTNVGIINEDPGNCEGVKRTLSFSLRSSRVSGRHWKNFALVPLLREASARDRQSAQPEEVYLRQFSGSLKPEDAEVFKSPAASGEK

[3] = biological target: Transient receptor potential cation channel subfamily M member 8 (Homo sapiens, UniProt Q7Z2W7); assay: Antagonist activity at human TRPM8
Chain of Transient receptor potential cation channel subfamily M member 8 (Q7Z2W7 whole entry): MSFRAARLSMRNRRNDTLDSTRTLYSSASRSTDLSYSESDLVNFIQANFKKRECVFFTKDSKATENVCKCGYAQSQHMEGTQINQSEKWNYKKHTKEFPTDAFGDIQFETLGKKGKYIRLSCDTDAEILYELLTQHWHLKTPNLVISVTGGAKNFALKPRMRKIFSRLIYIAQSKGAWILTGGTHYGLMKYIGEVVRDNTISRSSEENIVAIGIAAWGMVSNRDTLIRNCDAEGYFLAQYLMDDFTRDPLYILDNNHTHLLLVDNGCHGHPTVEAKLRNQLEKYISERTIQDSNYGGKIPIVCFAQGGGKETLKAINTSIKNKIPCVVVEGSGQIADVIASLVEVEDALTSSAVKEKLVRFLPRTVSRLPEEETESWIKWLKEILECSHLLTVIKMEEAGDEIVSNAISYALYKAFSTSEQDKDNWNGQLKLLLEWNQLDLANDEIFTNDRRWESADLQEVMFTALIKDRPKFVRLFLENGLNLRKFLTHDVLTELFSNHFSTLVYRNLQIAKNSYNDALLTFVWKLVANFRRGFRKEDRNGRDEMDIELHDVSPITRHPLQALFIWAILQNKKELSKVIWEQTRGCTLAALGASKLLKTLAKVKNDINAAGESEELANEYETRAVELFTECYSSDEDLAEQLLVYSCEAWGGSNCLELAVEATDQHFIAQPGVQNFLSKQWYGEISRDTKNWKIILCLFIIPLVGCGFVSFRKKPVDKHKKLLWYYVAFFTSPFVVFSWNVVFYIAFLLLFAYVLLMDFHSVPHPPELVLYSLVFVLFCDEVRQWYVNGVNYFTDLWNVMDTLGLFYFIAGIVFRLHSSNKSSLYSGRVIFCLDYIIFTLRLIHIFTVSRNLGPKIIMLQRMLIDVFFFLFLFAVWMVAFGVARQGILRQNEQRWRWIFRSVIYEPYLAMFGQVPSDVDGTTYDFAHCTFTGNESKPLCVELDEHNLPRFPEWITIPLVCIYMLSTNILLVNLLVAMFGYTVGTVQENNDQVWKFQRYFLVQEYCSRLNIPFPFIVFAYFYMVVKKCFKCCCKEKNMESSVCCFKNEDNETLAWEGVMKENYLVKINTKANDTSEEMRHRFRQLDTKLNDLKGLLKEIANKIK

[4] = biological target: T2, Transient receptor potential cation channel subfamily V member 1; assay: Agonist activity at human TRPV1
[5] = biological target: T3, Transient receptor potential cation channel subfamily A member 1 (Homo sapiens, UniProt O75762); assay: Antagonist activity at human TRPA1
T3 sequence (O75762 whole entry): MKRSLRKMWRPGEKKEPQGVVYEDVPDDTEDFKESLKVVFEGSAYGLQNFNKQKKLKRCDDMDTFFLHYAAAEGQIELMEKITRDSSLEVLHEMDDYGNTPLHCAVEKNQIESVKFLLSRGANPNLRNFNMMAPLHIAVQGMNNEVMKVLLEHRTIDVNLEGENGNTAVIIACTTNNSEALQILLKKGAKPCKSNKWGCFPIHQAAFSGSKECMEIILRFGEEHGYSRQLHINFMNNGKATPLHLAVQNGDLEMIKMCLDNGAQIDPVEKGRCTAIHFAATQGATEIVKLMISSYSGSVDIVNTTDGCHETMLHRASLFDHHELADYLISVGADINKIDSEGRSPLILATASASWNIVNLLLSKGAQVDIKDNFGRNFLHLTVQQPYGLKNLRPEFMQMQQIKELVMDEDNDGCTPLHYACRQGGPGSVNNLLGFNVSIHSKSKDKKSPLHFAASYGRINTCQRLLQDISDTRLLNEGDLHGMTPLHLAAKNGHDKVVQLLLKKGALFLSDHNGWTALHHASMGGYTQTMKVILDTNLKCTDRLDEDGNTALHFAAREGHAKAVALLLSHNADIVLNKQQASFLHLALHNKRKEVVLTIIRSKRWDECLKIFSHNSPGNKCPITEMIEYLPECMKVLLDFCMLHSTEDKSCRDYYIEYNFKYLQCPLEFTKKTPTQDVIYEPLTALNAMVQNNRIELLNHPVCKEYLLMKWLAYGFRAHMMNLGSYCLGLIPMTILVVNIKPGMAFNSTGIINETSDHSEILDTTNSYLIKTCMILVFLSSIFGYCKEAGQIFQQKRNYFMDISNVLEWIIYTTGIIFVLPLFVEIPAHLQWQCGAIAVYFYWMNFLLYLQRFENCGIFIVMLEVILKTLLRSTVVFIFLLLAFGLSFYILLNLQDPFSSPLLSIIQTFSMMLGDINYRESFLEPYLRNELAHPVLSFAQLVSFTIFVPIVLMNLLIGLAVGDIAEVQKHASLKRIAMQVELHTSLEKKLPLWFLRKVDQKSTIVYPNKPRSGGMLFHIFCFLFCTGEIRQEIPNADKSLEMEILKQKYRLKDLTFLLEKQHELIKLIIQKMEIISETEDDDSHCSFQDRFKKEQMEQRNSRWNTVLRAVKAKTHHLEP

[6] = biological target: T1, Transient receptor potential cation channel subfamily V member 4; assay: Agonist activity at human TRPV4 expressed in CHOK1 cells assessed as changes in intracellular calcium level measured for 5 mins by FLIPR assay; assay type: cell-based, CHO-K1
[7] = biological target: T4, Transient receptor potential cation channel subfamily V member 4 (Rattus norvegicus, UniProt Q9ERZ8); assay: Antagonist activity at rat TRPV4 expressed in CHOK1 cells assessed as inhibition of PF-04674114/GSK1016790A-induced changes in intracellular calcium level measured for 5 mins by FLIPR assay; assay type: cell-based, CHO-K1
T4 sequence (Q9ERZ8 whole entry): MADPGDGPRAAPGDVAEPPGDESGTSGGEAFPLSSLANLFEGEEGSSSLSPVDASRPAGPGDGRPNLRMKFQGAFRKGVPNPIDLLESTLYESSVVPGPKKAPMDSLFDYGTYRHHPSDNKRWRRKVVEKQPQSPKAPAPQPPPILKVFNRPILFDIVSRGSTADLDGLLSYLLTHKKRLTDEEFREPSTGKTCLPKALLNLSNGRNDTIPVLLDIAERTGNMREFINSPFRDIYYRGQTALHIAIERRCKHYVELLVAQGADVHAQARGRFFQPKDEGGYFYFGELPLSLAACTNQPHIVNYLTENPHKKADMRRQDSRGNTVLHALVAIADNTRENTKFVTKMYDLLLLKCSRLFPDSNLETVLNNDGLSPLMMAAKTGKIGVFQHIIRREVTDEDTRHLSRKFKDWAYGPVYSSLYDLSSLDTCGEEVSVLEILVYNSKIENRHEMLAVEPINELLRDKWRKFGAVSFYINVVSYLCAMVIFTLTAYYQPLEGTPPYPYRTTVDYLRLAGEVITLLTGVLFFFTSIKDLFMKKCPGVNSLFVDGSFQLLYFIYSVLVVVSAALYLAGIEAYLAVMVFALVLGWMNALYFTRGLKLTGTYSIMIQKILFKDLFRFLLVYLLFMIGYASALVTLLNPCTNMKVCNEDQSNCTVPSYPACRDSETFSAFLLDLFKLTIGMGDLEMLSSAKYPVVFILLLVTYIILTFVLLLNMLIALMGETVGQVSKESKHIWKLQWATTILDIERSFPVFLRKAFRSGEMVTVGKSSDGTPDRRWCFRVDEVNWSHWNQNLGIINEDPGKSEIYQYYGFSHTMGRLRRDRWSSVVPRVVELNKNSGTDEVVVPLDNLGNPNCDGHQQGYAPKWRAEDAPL

[8] = biological target: T4, Transient receptor potential cation channel subfamily V member 4; assay: Agonist activity at rat TRPV4 expressed in CHOK1 cells assessed as changes in intracellular calcium level measured for 5 mins by FLIPR assay; assay type: cell-based, CHO-K1
[9] = biological target: T3, Transient receptor potential cation channel subfamily A member 1; assay: Agonist activity at human TRPA1
[10] = Clearance in Sprague-Dawley rat at 1 mg/kg, iv; assay type: ADME, organism-based; parameters: dose 1 mg/kg, route intravenous; details: in vivo
[11] = Lipophilicity, log D of the compound; assay type: physicochemical; details: octanol/water
Rattus norvegicus [12] = assay: fCmax in Sprague-Dawley rat at 2 mg/kg, po; assay type: ADME, organism-based; parameters: dose 2 mg/kg, route oral; details: in vivo
[13] = Oral bioavailability in Sprague-Dawley rat at 2 mg/kg; assay type: ADME, organism-based; details: in vivo
[14] = Tmax in Sprague-Dawley rat at 2 mg/kg, po; assay type: ADME, organism-based; parameters: dose 2 mg/kg, route oral; details: in vivo
[15] = Clearance in human liver microsomes; assay type: ADME; details: read-out: CLH
[16] = Volume of distribution at steady state in Sprague-Dawley rat at 1 mg/kg, iv; assay type: ADME, organism-based; parameters: dose 1 mg/kg, route intravenous; details: in vivo, read-out: Vdss
[17] = biological target: Voltage-gated inwardly rectifying potassium channel KCNH2 (Homo sapiens, UniProt Q12809); assay: Inhibition of dofetilide binding to human ERG
[18] = Half life in Sprague-Dawley rat at 1 mg/kg, iv; assay type: ADME, organism-based; parameters: dose 1 mg/kg, route intravenous; details: in vivo
CYP1A2 = biological target: T5, CYP1A2 (Homo sapiens, UniProt P05177); assay: Inhibition of CYP1A2 (unknown origin) at 3 uM relative to control; assay type: ADME
T5 sequence (P05177 whole entry): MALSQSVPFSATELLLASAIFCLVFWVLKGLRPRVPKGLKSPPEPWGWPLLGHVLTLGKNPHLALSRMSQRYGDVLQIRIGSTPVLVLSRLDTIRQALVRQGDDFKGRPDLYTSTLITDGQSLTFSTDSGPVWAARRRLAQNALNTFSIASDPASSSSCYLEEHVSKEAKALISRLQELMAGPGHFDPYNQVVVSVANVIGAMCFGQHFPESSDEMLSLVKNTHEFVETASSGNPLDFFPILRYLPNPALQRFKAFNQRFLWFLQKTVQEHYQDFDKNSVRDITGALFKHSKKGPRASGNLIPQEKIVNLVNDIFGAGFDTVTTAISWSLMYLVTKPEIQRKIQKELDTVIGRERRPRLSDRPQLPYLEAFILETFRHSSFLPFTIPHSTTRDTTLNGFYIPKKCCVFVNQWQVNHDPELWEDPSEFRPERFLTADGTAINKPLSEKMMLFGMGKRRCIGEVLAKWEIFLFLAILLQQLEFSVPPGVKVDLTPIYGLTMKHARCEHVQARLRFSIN

CYP2C9 = CYP2C9 (Homo sapiens, UniProt P11712); assay: Inhibition of CYP2C9 (unknown origin) at 3 uM relative to control; assay type: ADME
CYP3A4 = CYP3A4 (Homo sapiens, UniProt P08684); assay: Inhibition of CYP3A4 (unknown origin) at 3 uM relative to control; assay type: ADME
[19] = Clearance in rat liver microsomes; assay type: ADME; details: read-out: CLH
Rattus norvegicus [20] = assay: Unbound clearance in Sprague-Dawley rat at 1 mg/kg, iv; assay type: ADME, organism-based; parameters: dose 1 mg/kg, route intravenous; details: in vivo
CYP2D6 = CYP2D6 (Homo sapiens, UniProt P10635); assay: Inhibition of CYP2D6 (unknown origin) at 3 uM relative to control; assay type: ADME
[21] = biological target: T1, Transient receptor potential cation channel subfamily V member 4; assay: Antagonist activity at human TRPV4

SMILES: N#Cc1ccc(OCC2(O)CN(S(=O)(=O)c3ccc(Cl)cc3C#N)C2)cc1F
- IC50 [1]: 3.4 nM

SMILES: N#Cc1ccc(OCC2(O)CN(S(=O)(=O)c3ccc(Cl)cc3C#N)C2)cc1Cl
- IC50 [1]: 3.6 nM

SMILES: N#Cc1ccc(S(=O)(=O)N2CCC(O)(COc3ccc(C#N)c(F)c3)CC2)c(C#N)c1
- IC50 [1]: 50.5 nM

SMILES: N#Cc1ccc(OCC2(O)CCN(S(=O)(=O)c3ccc(Cl)cc3Cl)CC2)cc1F
- IC50 [1]: 12.9 nM

SMILES: N#Cc1ccc(S(=O)(=O)N2CCC(O)(COc3ccc(C#N)c(F)c3)CC2)c(Cl)c1
- IC50 [1]: 49.1 nM

SMILES: N#Cc1ccc(OCC2(O)CCN(S(=O)(=O)c3ccc(Cl)cc3Cl)CC2)cc1
- IC50 [1]: 49.7 nM
- IC50 [2]: > 3900 nM
- IC50 [3]: 4800 nM
- EC50 [4]: > 20000 nM
- IC50 [5]: > 12500 nM
- EC50 [6]: > 1000 nM
- IC50 [7]: 1150 nM
- EC50 [8]: > 1000 nM
- EC50 [9]: > 12500 nM

SMILES: N#Cc1ccc(S(=O)(=O)N2CC(O)(COc3ccc(C#N)c(Cl)c3)C2)c(Cl)c1
- IC50 [1]: 4 nM

SMILES: N#Cc1ccc(OCC2(O)CN(S(=O)(=O)c3ccc(Cl)cc3Cl)C2)cc1F
- clearance [10]: 23.5 mL/min/kg
- logD [11]: 3.2
- fCmax (Rattus norvegicus [12]): 16 nM
- bioavailability [13]: 73%
- IC50 [1]: 3.8 nM
- Tmax [14]: 0.75 h
- microsomal CLint [15]: < 8.1 µL/min/mg
- IC50 [2]: > 16000 nM
- Vd [16]: 4.3 L/kg
- IC50 [17]: 9670 nM
- half-life [18]: 2.2 h
- inhibition at 3 µM (CYP1A2): < 20%
- inhibition at 3 µM (CYP2C9): < 20%
- IC50 [3]: 9580 nM
- inhibition at 3 µM (CYP3A4): < 20%
- microsomal CLint [19]: 87 µL/min/mg
- EC50 [4]: > 20000 nM
- CL free (Rattus norvegicus [20]): 756 mL/min/kg
- inhibition at 3 µM (CYP2D6): < 20%
- IC50 [5]: > 12500 nM
- EC50 [6]: > 1000 nM
- IC50 [7]: 34.1 nM
- EC50 [8]: > 1000 nM
- EC50 [9]: > 12500 nM

SMILES: O=S(=O)(c1ccc(Cl)cc1Cl)N1CCC(O)(CSc2ccncc2)CC1
- IC50 [21]: 2200 nM
